Assay results as given in patent US20020103083A1, “Promoting deeper root development, reducing nitrogen fertilizer usage, imparting drought resistance, and increasing tolerance to adverse soil conditions in plants” (priority 2000, published 2002).

Tested on: T. harzianum strain T-22
Experiment: Effect of chemical seed treatments on subsequent root colonization by T-22
Assay type: in vivo, Trichoderma harzianum
Details: full rates of chemical seed treatment
From the text: In nearly all cases, the best results in direct-seeded field crops are obtained with an integration of chemical seed treatments and the deep root developing agents. […] This resistance permits the use of both the biological root colonizing agent and chemical seed protectants.

Row | SMILES | prevention of subsequent root colonization by T-22
1 | CC(C)(C)C(O)(CCc1ccc(Cl)cc1)Cn1cncn1 (centres unmarked) [tebuconazole] | exceptions
2 | CN(C)C(=S)SSC(=S)N(C)C [thiram] | exceptions
